In article PMC6013247, “Preclinical characterization of INCB053914, a novel pan-PIM kinase inhibitor, alone and in combination with anticancer agents, in models of hematologic malignancies” (PLoS ONE, 2018):

Assays:
SRC = SRC (Homo sapiens, UniProt P12931); assay: Kinase selectivity panel; type: biochemical; details: [ATP] = 1 mM
GSK3B = GSK3B (Homo sapiens, UniProt P49841); assay: Kinase selectivity panel; type: biochemical; details: [ATP] = 1 mM
PIM2 = PIM2 (Homo sapiens, UniProt Q9P1W9); assay: Kinase selectivity panel; type: biochemical; details: [ATP] = 1 mM
MM cell lines = assay: Cell proliferation assay, all MM cell lines tested; type: cell-based; details: read-out: mean GI50 values, range over all MM cell lines tested
Experimental: (§1) The antiproliferative effects of INCB053914 on hematologic tumor cells were investigated using assays described in the Supporting Information (S2 File).
(§2) Cell proliferation assays. […] After 3 to 4 days, [^3H]-thymidine (1 μCi/well) (PerkinElmer) in PBS (10 μl) was added to the cell culture for an additional 12 hours. The incorporated radioactivity was separated by filtration with water through GF/B filters (Packard Bioscience, Meriden, Connecticut) and measured by liquid scintillation counting with a TopCount (Packard Bioscience).

MAPKAPK2 = MAPKAPK2 (Homo sapiens, UniProt P49137); assay: Kinase selectivity panel; type: biochemical; details: [ATP] = 1 mM
FAK = FAK (Homo sapiens, UniProt Q05397); assay: Kinase selectivity panel; type: biochemical; details: [ATP] = 1 mM
[1] = test system: pBAD, pSTAT3 and MYC in INA-6 (MM) tumors; assay: pBAD, pSTAT3 and MYC levels in INA-6 (MM) tumors; type: in vivo, mouse; details: INA-6 (MM) tumors in mice
Experimental: The PI3Kδ inhibitor INCB050465 (10 mg/kg once a day orally) was evaluated in combination with INCB053914 (30 mg/kg once a day orally) in mice bearing Pfeiffer (DLBCL) xenografts, a model sensitive to PI3Kδ inhibition (eight mice/group). Cytarabine was administered via intraperitoneal injection at a standard dose of 20 mg/kg twice a week, in combination with oral INCB053914 at a submaximally efficacious dose of 20 mg/kg twice a day for 12 days in mice bearing human KG-1 AML xenografts, a cytarabine-sensitive model (eight mice/group). The oral JAK1-selective inhibitor itacitinib (60 mg/kg twice a day orally) was assessed in combination with INCB053914 (100 mg/kg twice a day orally) after 8 days of administration to SCID mice bearing INA-6 (MM) xenografts (eight mice/group), a model sensitive to JAK inhibition.

SYK = SYK (Homo sapiens, UniProt P43405); assay: Kinase selectivity panel; type: biochemical; details: [ATP] = 1 mM
BTK = BTK (Homo sapiens, UniProt Q06187); assay: Kinase selectivity panel; type: biochemical; details: [ATP] = 1 mM
TIE2 = TIE2 (Homo sapiens, UniProt Q02763); assay: Kinase selectivity panel; type: biochemical; details: [ATP] = 1 mM
PKCD = PKCD (Homo sapiens, UniProt Q05655); assay: Kinase selectivity panel; type: biochemical; details: [ATP] = 1 mM
MOLM-16 = assay: Cell proliferation assay ([3H]-thymidine); type: cell-based, human; details: MOLM-16 (AML)
Experimental: as §1, §2

KG-1 = assay: Cell proliferation assay ([3H]-thymidine); type: cell-based, human; details: KG-1 (AML)
Experimental: as §1, §2

EPHA2 = EPHA2 (Homo sapiens, UniProt P29317); assay: Kinase selectivity panel; type: biochemical; details: [ATP] = 1 mM
[2] = test system: BAD phosphorylation in whole blood spiked with MOLM-16 cells; assay: BAD phosphorylation in whole blood samples spiked with tumor cells, treated ex vivo; type: cell-based; details: MOLM16
NLK = NLK (Homo sapiens, UniProt Q9UBE8); assay: Kinase selectivity panel; type: biochemical; details: [ATP] = 1 mM
RSK2 = RSK2 (Homo sapiens, UniProt P51812); assay: Kinase selectivity panel; type: biochemical
PIM1 = PIM1 (Homo sapiens, UniProt P11309); assay: Kinase selectivity panel; type: biochemical; details: [ATP] = 1 mM
[3] = Plasma concentrations of INCB053914 in tumor-bearing mice; type: in vivo, mouse; details: up to 16 hours post oral administration, MOLM-16 and KMS-12-BM tumor-bearing mice
Experimental: Human MOLM-16 (AML) and KMS-12-BM (MM) xenografts were established in SCID mice. For the evaluation of intratumoral pBAD inhibition, tumor-bearing mice (three to eight mice/group) were treated with a single oral dose of INCB053914 at doses ranging from 0 (vehicle) to 100 mg/kg. In one representative experiment, mice were sacrificed 4 hours after a single dose, and tumors were collected to analyze the levels of pBAD relative to those of vehicle-administered controls. Plasma samples were collected for pharmacokinetic analysis.
Concentrations of INCB053914 in plasma were analyzed using liquid chromatography tandem–mass spectrometry at 2, 4, 8, and 16 hours postdose (see Supporting Information, S3 File).
Blood samples from each study were collected using EDTA and centrifuged to obtain plasma. The calibration curves were prepared in mouse plasma (BioreclamationIVT, Westbury, New York). Samples (50 µl) were placed in a 2-ml square well plate (Costar, Corning, New York). Acetonitrile/methanol 9/1 v/v (550 µl) containing an internal standard was added for precipitation of the protein. The 96-well plate was covered, vortexed for 5 minutes, and centrifuged for 10 minutes at 3,000 rpm. […] The samples were analyzed for INCB053914 by liquid chromatography tandem–mass spectrometry using gradient high-performance liquid chromatography and atmospheric pressure chemical ionization.

[4] = test system: PIM2 expression and 4E-BP1 phosphorylation in whole blood samples; assay: Pharmacodynamic assessment of blood samples from patients with AML in the phase 1/2 trial; type: in vivo, human; details: patients with AML receiving INCB053914 100 mg twice a day; blood 0 to 6 hours post-dose
IGF1R = IGF1R (Homo sapiens, UniProt P08069); assay: Kinase selectivity panel; type: biochemical; details: [ATP] = 1 mM
PLK3 = PLK3 (Homo sapiens, UniProt Q9H4B4); assay: Kinase selectivity panel; type: biochemical; details: [ATP] = 1 mM
EGFR = EGFR (Homo sapiens, UniProt P00533); assay: Kinase selectivity panel; type: biochemical; details: [ATP] = 1 mM
ROCK1 = ROCK1 (Homo sapiens, UniProt Q13464); assay: Kinase selectivity panel; type: biochemical; details: [ATP] = 1 mM

RSK2, sequence (P51812 whole entry): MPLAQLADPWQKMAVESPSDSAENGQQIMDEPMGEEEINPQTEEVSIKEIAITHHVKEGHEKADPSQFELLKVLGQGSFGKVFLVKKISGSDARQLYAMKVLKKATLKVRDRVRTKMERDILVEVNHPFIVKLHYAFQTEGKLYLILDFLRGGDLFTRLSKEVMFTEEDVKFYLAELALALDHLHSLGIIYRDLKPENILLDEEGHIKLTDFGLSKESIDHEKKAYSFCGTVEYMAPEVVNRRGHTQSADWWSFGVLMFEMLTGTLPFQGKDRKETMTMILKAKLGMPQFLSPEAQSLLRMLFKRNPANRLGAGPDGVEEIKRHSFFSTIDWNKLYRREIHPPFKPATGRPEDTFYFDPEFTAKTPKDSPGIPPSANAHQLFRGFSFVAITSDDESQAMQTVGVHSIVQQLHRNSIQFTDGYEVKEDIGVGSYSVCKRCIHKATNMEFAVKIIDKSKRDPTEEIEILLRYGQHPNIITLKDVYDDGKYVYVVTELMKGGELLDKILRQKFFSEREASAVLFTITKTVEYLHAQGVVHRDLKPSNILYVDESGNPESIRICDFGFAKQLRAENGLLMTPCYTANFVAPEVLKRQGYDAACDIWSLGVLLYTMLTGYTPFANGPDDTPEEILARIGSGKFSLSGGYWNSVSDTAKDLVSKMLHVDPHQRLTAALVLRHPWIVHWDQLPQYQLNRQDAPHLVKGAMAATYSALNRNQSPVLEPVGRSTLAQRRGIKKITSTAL
EGFR, sequence (P00533 25-1210): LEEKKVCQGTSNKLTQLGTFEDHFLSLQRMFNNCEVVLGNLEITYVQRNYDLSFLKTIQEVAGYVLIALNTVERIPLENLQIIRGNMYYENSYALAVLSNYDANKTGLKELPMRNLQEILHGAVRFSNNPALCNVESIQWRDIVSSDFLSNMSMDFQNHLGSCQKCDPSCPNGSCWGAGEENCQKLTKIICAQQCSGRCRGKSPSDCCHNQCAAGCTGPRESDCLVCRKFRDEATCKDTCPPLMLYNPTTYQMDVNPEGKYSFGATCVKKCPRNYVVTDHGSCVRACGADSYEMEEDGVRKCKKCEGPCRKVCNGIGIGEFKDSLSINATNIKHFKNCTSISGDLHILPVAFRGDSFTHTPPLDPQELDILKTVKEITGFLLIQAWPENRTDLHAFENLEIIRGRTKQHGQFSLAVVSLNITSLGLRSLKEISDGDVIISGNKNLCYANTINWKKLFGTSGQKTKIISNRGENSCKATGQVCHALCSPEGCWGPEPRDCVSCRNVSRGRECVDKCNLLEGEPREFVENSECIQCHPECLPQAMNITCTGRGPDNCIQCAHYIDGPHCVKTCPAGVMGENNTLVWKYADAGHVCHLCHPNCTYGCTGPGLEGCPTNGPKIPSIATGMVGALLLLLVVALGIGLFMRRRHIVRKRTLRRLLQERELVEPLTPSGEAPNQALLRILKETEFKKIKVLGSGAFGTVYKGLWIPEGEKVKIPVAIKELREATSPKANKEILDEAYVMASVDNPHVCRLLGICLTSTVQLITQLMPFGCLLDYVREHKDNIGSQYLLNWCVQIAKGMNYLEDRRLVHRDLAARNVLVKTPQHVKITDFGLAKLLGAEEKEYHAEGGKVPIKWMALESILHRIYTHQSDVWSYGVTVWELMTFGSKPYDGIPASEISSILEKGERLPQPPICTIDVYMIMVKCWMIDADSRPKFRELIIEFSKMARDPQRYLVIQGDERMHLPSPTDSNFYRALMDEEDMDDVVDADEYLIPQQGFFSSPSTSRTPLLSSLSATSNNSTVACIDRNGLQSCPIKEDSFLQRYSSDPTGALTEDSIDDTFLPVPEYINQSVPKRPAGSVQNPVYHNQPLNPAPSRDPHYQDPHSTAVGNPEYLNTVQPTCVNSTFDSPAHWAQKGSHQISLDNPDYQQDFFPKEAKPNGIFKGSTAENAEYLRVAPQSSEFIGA
NLK, sequence (Q9UBE8 whole entry): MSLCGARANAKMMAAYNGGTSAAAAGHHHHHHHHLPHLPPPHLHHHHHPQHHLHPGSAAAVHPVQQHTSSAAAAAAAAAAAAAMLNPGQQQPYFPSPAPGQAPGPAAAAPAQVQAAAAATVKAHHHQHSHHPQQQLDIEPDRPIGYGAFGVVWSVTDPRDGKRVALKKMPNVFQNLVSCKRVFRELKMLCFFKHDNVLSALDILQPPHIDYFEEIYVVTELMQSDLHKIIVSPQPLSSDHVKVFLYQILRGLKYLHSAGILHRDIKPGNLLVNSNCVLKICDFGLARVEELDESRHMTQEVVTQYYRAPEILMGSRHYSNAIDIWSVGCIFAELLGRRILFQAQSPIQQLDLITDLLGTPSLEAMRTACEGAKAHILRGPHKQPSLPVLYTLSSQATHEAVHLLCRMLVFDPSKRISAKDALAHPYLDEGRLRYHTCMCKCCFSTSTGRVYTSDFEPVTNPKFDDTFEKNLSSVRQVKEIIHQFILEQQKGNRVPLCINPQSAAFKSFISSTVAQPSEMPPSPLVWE
IGF1R, sequence (P08069 31-1367): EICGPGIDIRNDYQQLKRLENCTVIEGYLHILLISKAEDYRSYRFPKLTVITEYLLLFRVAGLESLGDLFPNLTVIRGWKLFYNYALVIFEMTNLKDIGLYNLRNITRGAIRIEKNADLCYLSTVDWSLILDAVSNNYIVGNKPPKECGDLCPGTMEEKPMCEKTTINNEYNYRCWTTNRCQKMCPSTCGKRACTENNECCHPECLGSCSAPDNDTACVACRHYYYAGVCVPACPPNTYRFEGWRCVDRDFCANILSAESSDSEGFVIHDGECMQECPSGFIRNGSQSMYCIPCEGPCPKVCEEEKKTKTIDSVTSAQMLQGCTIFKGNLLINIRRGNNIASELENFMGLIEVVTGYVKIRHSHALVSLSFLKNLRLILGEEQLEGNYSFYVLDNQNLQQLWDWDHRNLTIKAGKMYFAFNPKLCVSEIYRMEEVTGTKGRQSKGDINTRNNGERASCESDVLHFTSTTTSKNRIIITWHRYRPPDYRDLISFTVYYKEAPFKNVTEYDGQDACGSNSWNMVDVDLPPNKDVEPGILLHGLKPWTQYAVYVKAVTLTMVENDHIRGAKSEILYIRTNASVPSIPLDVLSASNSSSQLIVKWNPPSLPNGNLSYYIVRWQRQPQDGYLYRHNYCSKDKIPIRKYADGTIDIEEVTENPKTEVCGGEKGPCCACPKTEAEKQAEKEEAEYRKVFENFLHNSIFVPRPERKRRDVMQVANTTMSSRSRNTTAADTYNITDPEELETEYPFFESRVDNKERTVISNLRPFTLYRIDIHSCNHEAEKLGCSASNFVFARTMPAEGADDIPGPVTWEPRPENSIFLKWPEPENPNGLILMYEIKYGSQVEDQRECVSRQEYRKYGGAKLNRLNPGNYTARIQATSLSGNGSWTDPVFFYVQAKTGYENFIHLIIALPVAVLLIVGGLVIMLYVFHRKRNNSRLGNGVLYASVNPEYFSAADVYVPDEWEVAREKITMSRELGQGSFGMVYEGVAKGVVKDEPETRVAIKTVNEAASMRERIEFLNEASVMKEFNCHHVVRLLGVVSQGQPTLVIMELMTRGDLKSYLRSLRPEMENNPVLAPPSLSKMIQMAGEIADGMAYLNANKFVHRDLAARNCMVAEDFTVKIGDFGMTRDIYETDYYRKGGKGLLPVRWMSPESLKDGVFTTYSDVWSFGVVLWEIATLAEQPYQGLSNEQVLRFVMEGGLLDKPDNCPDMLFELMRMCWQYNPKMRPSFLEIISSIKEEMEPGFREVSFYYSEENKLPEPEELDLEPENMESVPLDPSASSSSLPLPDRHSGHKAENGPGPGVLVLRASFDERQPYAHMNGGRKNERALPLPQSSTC
PLK3, sequence (Q9H4B4 whole entry): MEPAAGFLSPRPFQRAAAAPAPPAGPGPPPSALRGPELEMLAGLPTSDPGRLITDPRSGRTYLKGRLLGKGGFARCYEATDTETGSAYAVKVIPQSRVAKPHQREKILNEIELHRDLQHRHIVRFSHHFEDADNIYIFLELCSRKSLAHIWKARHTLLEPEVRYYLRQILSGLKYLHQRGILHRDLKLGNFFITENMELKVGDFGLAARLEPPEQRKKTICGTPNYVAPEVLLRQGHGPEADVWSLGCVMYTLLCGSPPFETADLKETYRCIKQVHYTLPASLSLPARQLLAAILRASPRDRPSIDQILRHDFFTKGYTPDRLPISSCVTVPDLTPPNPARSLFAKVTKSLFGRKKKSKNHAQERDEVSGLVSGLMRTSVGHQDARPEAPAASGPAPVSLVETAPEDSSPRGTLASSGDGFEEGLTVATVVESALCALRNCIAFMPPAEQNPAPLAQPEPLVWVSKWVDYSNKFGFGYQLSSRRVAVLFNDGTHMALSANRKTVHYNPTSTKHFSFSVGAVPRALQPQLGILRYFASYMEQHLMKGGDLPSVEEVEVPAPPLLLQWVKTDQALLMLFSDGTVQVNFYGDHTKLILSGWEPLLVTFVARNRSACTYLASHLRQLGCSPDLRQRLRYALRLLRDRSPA
BTK, sequence (Q06187 whole entry): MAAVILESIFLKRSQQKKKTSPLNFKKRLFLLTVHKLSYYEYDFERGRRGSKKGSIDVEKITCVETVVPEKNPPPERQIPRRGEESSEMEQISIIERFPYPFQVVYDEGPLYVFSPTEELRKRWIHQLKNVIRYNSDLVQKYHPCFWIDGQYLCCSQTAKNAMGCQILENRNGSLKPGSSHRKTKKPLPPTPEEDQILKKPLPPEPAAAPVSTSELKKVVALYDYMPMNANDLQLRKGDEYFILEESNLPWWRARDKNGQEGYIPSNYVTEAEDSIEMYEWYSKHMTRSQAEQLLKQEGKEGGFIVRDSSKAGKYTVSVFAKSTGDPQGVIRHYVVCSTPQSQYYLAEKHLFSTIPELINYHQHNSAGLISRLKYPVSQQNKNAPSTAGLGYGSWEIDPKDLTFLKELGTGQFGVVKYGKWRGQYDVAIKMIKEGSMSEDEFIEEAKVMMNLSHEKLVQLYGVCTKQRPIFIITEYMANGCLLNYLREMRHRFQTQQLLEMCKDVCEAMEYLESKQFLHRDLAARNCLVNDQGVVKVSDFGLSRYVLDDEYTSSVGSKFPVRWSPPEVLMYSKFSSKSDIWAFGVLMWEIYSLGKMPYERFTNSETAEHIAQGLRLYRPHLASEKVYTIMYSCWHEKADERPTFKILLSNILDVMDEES

C[C@H]1CN(c2c(NC(=O)c3ccc(F)c(-c4c(F)cccc4F)n3)cnc3c2CC[C@H]3O)C[C@@H](N)[C@@H]1O.O=P(O)(O)O [INCB053914, N-((R)-4-((3R,4R,5S)-3-amino-4-hydroxy-5-methylpiperidin-1-yl)-7-hydroxy-6,7-dihydro-5H-cyclopenta[b]pyridin-3-yl)-6-(2,6-difluorophenyl)-5-fluoropicolinamide phosphate]
IC50 (SRC): > 20 µM | IC50 (GSK3B): > 20 µM | IC50 (PIM2): 0.015 µM | GI50 (MM cell lines): 0.0132 to 0.23 µM | IC50 (MAPKAPK2): > 20 µM | IC50 (FAK): > 20 µM | MYC levels [1]: decreased MYC levels | level of pBAD [1]: decrease | IC50 (SYK): > 20 µM | IC50 (BTK): > 20 µM | IC50 (TIE2): > 20 µM | IC50 (PKCD): > 20 µM | GI50 (MOLM-16; Homo sapiens, MOLM16, read-out: Mean (± SD) GI50): 0.0033 µM | Mean (SD) maximum inhibition (MOLM-16): 99.3 ± 0.3% | GI50 (KG-1; Homo sapiens, read-out: Mean (± SD) GI50): 0.0179 ± 0.0071 µM | Mean (SD) maximum inhibition (KG-1): 88.3 ± 3.8% | IC50 (EPHA2): > 20 µM | IC50 [2]: 0.076 µM | IC50 (NLK): > 20 µM | IC50 (RSK2; [ATP] = 1 mM): 7.12 µM | IC50 (RSK2; as given in the text): 7.1 µM | IC50 (PIM1): < 0.012 µM | plasma concentrations versus dose [3]: suggested dose proportionality | 4E-BP1 phosphorylation [4]: a decrease in 4E-BP1 phosphorylation | PIM2 expression levels [4]: an increase in PIM2 expression levels | IC50 (IGF1R): > 20 µM | IC50 (PLK3): > 20 µM | IC50 (EGFR): > 20 µM | IC50 (ROCK1): > 20 µM
